Data on two molecules can be found in ChEMBL document CHEMBL5532655, “Discovery of (R)-4-(8-methoxy-2-methyl-1-(1-phenylethy)-1H-imidazo[4,5-c]quinnolin-7-yl)-3,5-dimethylisoxazole as a potent and selective BET inhibitor for treatment of acute myeloid leukemia (AML) guided by FEP calculation” (Eur J Med Chem, 2024).

Series [1] concerns MV4-11. The series is described as follows: Induction of apoptosis in human MV4-11 cells assessed as necrotic cells at 5 uM incubated for 24 hrs by annexin V-FITC/PI staining based flow cytometric analysis (reference value: 2.35 %). In kind it is functional.
The subject of series [2] is MV4-11. The series can be described thus: Induction of apoptosis in human MV4-11 cells assessed as early apoptotic cells at 5 uM incubated for 24 hrs by annexin V-FITC/PI staining based flow cytometric analysis (reference value: 0%). In kind it is functional. (In flow cytometry, cells or beads pass a laser one at a time.)
Series [3] concerns MV4-11. The series is described as follows: Induction of apoptosis in human MV4-11 cells assessed as upregulation of cleaved PARP expression at 500 nM hrs by Western blotting analysis. Type of series: functional, cell-based. The settings on record: TDE = time-dependent effect. For orientation: A western blot detects proteins with antibodies after separation by electrophoresis.

In series [4] the test system is MV4-11. The series can be described thus: Induction of apoptosis in human MV4-11 cells assessed as necrotic cells at 0.625 uM incubated for 24 hrs by annexin V-FITC/PI staining based flow cytometric analysis (reference value: 2.35 %). Type of series: functional.
Series [5] concerns MV4-11. The series can be described thus: Induction of apoptosis in human MV4-11 cells assessed as upregulation of p21 expression at 500 nM hrs by Western blotting analysis. Particulars: TDE = time-dependent effect. In kind it is functional, cell-based.
Series [6] has as its system MV4-11. The series is described as follows: Induction of apoptosis in human MV4-11 cells assessed as early apoptotic cells at 10 uM incubated for 24 hrs by annexin V-FITC/PI staining based flow cytometric analysis (reference value: 0%). In kind it is functional.
Series [7] has as its system MV4-11. The series can be described thus: Induction of apoptosis in human MV4-11 cells assessed as viable cells at 1.25 uM incubated for 24 hrs by annexin V-FITC/PI staining based flow cytometric analysis (reference value: 97%). In kind it is functional. Particulars: Homo sapiens, MV4-11, read-out: Activity.
Series [8] deals with MV4-11. The series is described as follows: Induction of apoptosis in human MV4-11 cells assessed as late apoptotic cells at 0.625 uM incubated for 24 hrs by annexin V-FITC/PI staining based flow cytometric analysis (reference value: 0.04 %). Type of series: functional.
In series [9] the test system is MV4-11. The series is described as follows: Induction of apoptosis in human MV4-11 cells assessed as late apoptotic cells at 5 uM incubated for 24 hrs by annexin V-FITC/PI staining based flow cytometric analysis (reference value: 0.04 %). Type of series: functional.
The test system of series [10] is MV4-11. The series can be described thus: Induction of apoptosis in human MV4-11 cells assessed as upregulation of cleaved PARP expression at 0.3125 to 2.5 uM incubated for 48 hrs by Western blotting analysis. In kind it is functional, cell-based. The settings on record: dose 0.3125-2.5 µM.
Series [11] in a line: AUC (0-infinity) in Sprague-Dawley rat at 10 mg/kg,po administration measured upto 24 hrs by LC-MS/MS analysis. In kind it is ADME, organism-based. Particulars: in vivo.
The subject of series [12] is MV4-11. The series can be described thus: Induction of cell cycle arrest in human MV4-11 cells assessed as accumulation of cells at G0/G1 phase at 0.3125 uM incubated for 24 hrs by propidium iodide staining flow cytometric analysis (reference value: 37.64 %). In kind it is functional.
In series [13] the test system is MV4-11. The series can be described thus: Induction of apoptosis in human MV4-11 cells assessed as early apoptotic cells at 1.25 uM incubated for 24 hrs by annexin V-FITC/PI staining based flow cytometric analysis (reference value: 0%). In kind it is functional.
Series [14] has as its system MV4-11. The series can be described thus: Induction of cell cycle arrest in human MV4-11 cells assessed as accumulation of cells at G0/G1 phase at 2.5 uM incubated for 24 hrs by propidium iodide staining flow cytometric analysis (reference value: 37.64 %). Type of series: functional.
For series [15], the target named is Bromodomain testis-specific protein (Homo sapiens) (UniProt Q58F21). Particulars: time 30.0 min.

Activity calls are given as the source filed them. The rule behind the calls is not given here.

`COc1cc2c(cc1-c1c(C)noc1C)ncc1nc(C)n([C@H](C)c3ccccc3)c12`: the Activity is 8% in the series with MV4-11 [1]; 8.46% in the series on MV4-11 [2]; “Tde” with MV4-11 [3]; 6% in the series with MV4-11 [4]; “Tde” in the series on MV4-11 [5]; 10.04% with MV4-11 [6]. The Activity is given as 4.8% in the series on MV4-11 [8]; 12.62% in the series with MV4-11 [9]; 48.98% in the series on MV4-11 [12]; 6.62% with MV4-11 [13]; 72.14% in the series with MV4-11 [14]. Also, the viability at 1.25 µM in the series on MV4-11 [7] was 83.1%. For the same molecule, the result with MV4-11 [10] was Active. For the same molecule, the AUC(0-inf) (as a rule, the area under the concentration-time curve extrapolated to infinity) in [11] turned out to be 16000 ng·h/mL.
Consider `COc1cc2c(cc1-c1c(C)n[nH]c1C)ncc1nc(C)n([C@H](C)c3ccccc3)c12`, for which, in series [15], the ΔTm (commonly the shift of the melting midpoint relative to a reference) is 5 °C.
